In patent US6713475B2, “Tricyclic benzodiazepines as vasopressin receptor antagonists” (Ortho-McNeil Pharmaceutical, Inc., priority 1999, dated 2004):
Several values for one entry are separate records, joined by “and”; a condition that tells them apart may be missing. Equal entries are not always repeated.

Biological target: V2 (Homo sapiens, UniProt P30518)
Test: In vitro recombinant vasopressin receptor binding assay (V2 Bdg), displacement of 3H-arginine vasopressin
Parameters: expressed in transfected cells; host or cells: HEK-293
Conditions: for V2 Bdg % inh: 0.1 uM, printed in parentheses in place of IC50; for IC50: membrane with cloned human V-2 receptor (HEK-293); for inhibition at 0.1 µM: read-out: V2 Bdg % inh
Experimental: In vitro Recombinant Vasopressin Receptor Binding Assay
Compounds were assessed for their ability to displace ^3H-arginine vasopressin from the human V-1 or V-2 receptor in HEK-293 cells. […] Into wells of 96-well round bottom polypropylene plates were added buffer, test compound, membrane (containing cloned human V-1 or V-2 receptor), and ^3H-vasopressin. The reaction plates were allowed to sit at room temperature for one hour. The samples were filtered through Unifilter GF/C plates (presoaked in 0.3 polyethyleneimine). The plates were washed 5 times with cold physiological saline containing 0.05% Tween 20. After drying, the bottom of the filter plates were sealed and 0.025 ml of Microscint-20 was added to each filter. The top of the plate was sealed, and the plate was counted.

| Molecule | V2 Bdg % inh | IC50 | further results |
| --- | --- | --- | --- |
| CN1CCN2Cc3ccccc3N(C(=O)c3ccc(NC(=O)c4cccc(Cl)c4F)cc3Cl)CC2C1 (racemic) [Compound 65, (RS)-2-Fluoro-3-chloro-N-[3-chloro-4-(1,3,4,12a-tetrahydro-2-methyl-6H-[1,4]pyrazino[4,3-a][1,4]-benzodiazepin-11(12H)-yl-carbonyl)phenyl]benzamide] | (17%/0.1 uM) | – | – |
| O=C(Nc1ccc(C(=O)N2CC3CSCCN3Cc3ccccc32)c(F)c1)c1ccccc1-c1ccsc1 (racemic) [Compound 51, (RS)-2-(3-Thienyl)-N-[3-fluoro-4-(1,3,4,12a-tetrahydro-6H-[1,4]thiazino[4,3-a][1,4]-benzodiazepin-11(12H)-yl-carbonyl)phenyl]benzamide] | (62%/0.1 uM) | – | – |
| COc1cccc(-c2ccccc2C(=O)Nc2ccc(C(=O)N3CC4COCCN4Cc4ccccc43)c(Cl)c2)c1 (racemic) [Compound 113, (RS)-2-(3-Methoxy-phenyl)-N-[3-chloro-4-(1,3,4,12a-tetrahydro-6H-[1,4]oxazino[4,3-a][1,4]-benzodiazepin-11(12H)-yl-carbonyl)phenyl]benzamide] | – | 8 nM | – |
| Cc1ccc(F)cc1C(=O)Nc1ccc(C(=O)N2CC3COCCN3Cc3ccccc32)c(Cl)c1 (racemic) [Compound 110, (RS)-2-Methyl-5-fluoro-N-[3-chloro-4-(1,3,4,12a-tetrahydro-6H-[1,4]oxazino[4,3-a][1,4]-benzodiazepin-11(12H)-yl-carbonyl)phenyl]benzamide] | – | 6 nM | – |
| COc1cccc2c1N(C(=O)c1ccc(NC(=O)c3ccccc3-c3ccccc3)cc1)CC1CSCCN1C2 (racemic) [Compound 40, (RS)-2-Phenyl-N-[4-(10-methoxy-1,3,4,12a-tetrahydro-6H-[1,4]thiazino[4,3-a][1,4]-benzodiazepin-11(12H)-yl-carbonyl)phenyl]benzamide] | – | – | inhibition at 0.1 µM: 12% |
| O=C(Nc1ccc(C(=O)N2CC3CNCCN3Cc3ccccc32)cc1)c1ccccc1-c1ccccc1 (racemic) [Compound 58, (RS)-2-Phenyl-N-[4-(1,3,4,12a-tetrahydro-6H-[1,4]pyrazino[4,3-a][1,4]-benzodiazepin-11(12H)-yl-carbonyl)phenyl]benzamide] | (33%/0.1 uM) | – | – |
| CN1CCN2Cc3ccccc3N(C(=O)c3ccc(NC(=O)c4ccccc4-c4ccccc4)cc3C(F)(F)F)CC2C1 (racemic) [Compound 75, (RS)-2-Phenyl-N-[3-trifluoromethyl-4-(1,3,4,12a-tetrahydro-2-methyl-6H-[1,4]pyrazino[4,3-a][1,4]-benzodiazepin-11(12H)-yl-carbonyl)phenyl]benzamide] | (2%/0.1 uM) | – | – |
| CN1CCN2Cc3ccccc3N(C(=O)c3ccc(NC(=O)c4ccccc4F)cc3Cl)CC2C1 (racemic) [Compound 64, (RS)-2-Fluoro-N-[3-chloro-4-(1,3,4,12a-tetrahydro-2-methyl-6H-[1,4]pyrazino[4,3-a][1,4]-benzodiazepin-11(12H)-yl-carbonyl)phenyl]benzamide] | 0% and 5% | – | – |
| O=C(Nc1ccc(C(=O)N2CC3CSCCN3Cc3ccccc32)c(Cl)c1)c1ccc(F)cc1-c1ccccc1 (racemic) [Compound 105, (RS)-2-Phenyl-4-fluoro-N-[3-chloro-4-(1,3,4,12a-tetrahydro-6H-[1,4]thiazino[4,3-a][1,4]-benzodiazepin-11(12H)-yl-carbonyl)phenyl]benzamide] | – | 8 nM | – |
| O=C(Nc1ccc(C(=O)N2CC3CSCCN3Cc3ccccc32)c(Cl)c1)c1cc(F)ccc1-c1ccccc1 (racemic) [Compound 104, (RS)-2-Phenyl-5-fluoro-N-[3-chloro-4-(1,3,4,12a-tetrahydro-6H-[1,4]thiazino[4,3-a][1,4]-benzodiazepin-11(12H)-yl-carbonyl)phenyl]benzamide] | – | 79 nM | – |
| (RS)-2-Methyl-5-fluoro-N-[3-chloro-4-(1,3,4,12a-tetrahydro-2-methyl-6H-[1,4]pyrazino[4,3-a][1,4]-benzodiazepin-11(12H)-yl-carbonyl)phenyl]benzamide [Compound 94] | (39%/0.1 uM) | – | – |
| CN1CCN2Cc3ccccc3N(C(=O)c3ccc(NC(=O)c4ccccc4-c4ccccc4)cc3Cl)CC2C1 (racemic) [Compound 56, (RS)-2-Phenyl-N-[3-chloro-4-(1,3,4,12a-tetrahydro-2-methyl-6H-[1,4]pyrazino[4,3-a][1,4]-benzodiazepin-11(12H)-yl-carbonyl)phenyl]benzamide] | – | 35 nM and 54 nM | inhibition at 0.1 µM: 71% |
| CC(C)N1CCN2Cc3ccccc3N(C(=O)c3ccc(NC(=O)c4ccccc4-c4ccccc4)cc3Cl)CC2C1 (racemic) [Compound 60, (RS)-2-Phenyl-N-[3-chloro-4-(1,3,4,12a-tetrahydro-2-isopropyl-6H-[1,4]pyrazino[4,3-a][1,4]-benzodiazepin-11(12H)-yl-carbonyl)phenyl]benzamide] | (25%/0.1 uM) | – | – |
| Cc1csc(-c2ccccc2C(=O)Nc2ccc(C(=O)N3CC4CSCCN4Cc4ccccc43)cc2)c1 (racemic) [Compound 53, (RS)-2-(4-Methyl-2-thienyl)-N-[4-(1,3,4,12a-tetrahydro-6H-[1,4]thiazino[4,3-a][1,4]-benzodiazepin-11(12H)-yl-carbonyl)phenyl]benzamide] | – | 15 nM | – |
| O=C(Nc1ccc(C(=O)N2CC3COCCN3Cc3ccccc32)c(Cl)c1)c1cc(F)ccc1-c1ccccc1 (racemic) [Compound 111, (RS)-2-Phenyl-5-fluoro-N-[3-chloro-4-(1,3,4,12a-tetrahydro-6H-[1,4]oxazino[4,3-a][1,4]-benzodiazepin-11(12H)-yl-carbonyl)phenyl]benzamide] | – | 23 nM | – |
| O=C(Nc1ccc(C(=O)N2CC3CS(=O)(=O)CCN3Cc3ccccc32)cc1)c1ccccc1-c1ccccc1 (racemic) [Compound 55, (RS)-2-Phenyl-N-[4-(1,3,4,12a-tetrahydro-2,2-dioxo-6H-[1,4]thiazino[4,3-a][1,4]-benzodiazepin-11(12H)-yl-carbonyl)phenyl]benzamide] | – | 140 nM | – |
| (RS)-2,6-Dimethyl-N-[3-chloro-4-(1,3,4,12a-tetrahydro-2-methyl-6H-[1,4]pyrazino[4,3-a][1,4]-benzodiazepin-11(12H)-yl-carbonyl)phenyl]benzamide [Compound 63] | (9%/0.1 uM) | – | – |
| O=C(Nc1ccc(C(=O)N2CC3CSCCN3Cc3ccccc32)c(O)c1)c1ccccc1-c1ccccc1 (racemic) [Compound 109, (RS)-2-Phenyl-N-[3-hydroxy-4-(1,3,4,12a-tetrahydro-6H-[1,4]thiazino[4,3-a][1,4]-benzodiazepin-11(12H)-yl-carbonyl)phenyl]benzamide] | – | 7 nM | – |
| O=C(Nc1ccc(C(=O)N2CC3COCCN3Cc3ccccc32)c(Cl)c1)c1ccc(F)cc1-c1ccccc1 (racemic) [Compound 114, (RS)-2-Phenyl-4-fluoro-N-[3-chloro-4-(1,3,4,12a-tetrahydro-6H-[1,4]oxazino[4,3-a][1,4]-benzodiazepin-11(12H)-yl-carbonyl)phenyl]benzamide] | – | 4 nM | – |
| Cc1ccc(-c2ccccc2C(=O)Nc2ccc(C(=O)N3CC4CN(C)CCN4Cc4ccccc43)c(Cl)c2)cc1 (racemic) [Compound 66, (RS)-2-(4-Methyl-phenyl)-N-[3-chloro-4-(1,3,4,12a-tetrahydro-2-methyl-6H-[1,4]pyrazino[4,3-a][1,4]-benzodiazepin-11(12H)-yl-carbonyl)phenyl]benzamide] | (82%/0.1 uM) | – | – |
| Cc1ccc(-c2ccccc2C(=O)Nc2ccc(C(=O)N3CC4COCCN4Cc4ccccc43)cc2)cc1 (racemic) [Compound 12, (RS)-2-(4-Methyl-phenyl)-N-[4-(1,3,4,12a-tetrahydro-6H-[1,4]oxazino[4,3-a][1,4]-benzodiazepin-11(12H)-yl-carbonyl)phenyl]benzamide] | – | 6 nM | – |
| Cc1ccc(-c2ccccc2C(=O)Nc2ccc(C(=O)N3CC4CN(C)CCN4Cc4ccccc43)cc2C)cc1 (racemic) [Compound 79, (RS)-2-(4-Methyl-phenyl)-N-[2-methyl-4-(1,3,4,12a-tetrahydro-2-methyl-6H-(1,4]pyrazino[4,3-a][1,4]-benzodiazepin-11(12H)-yl-carbonyl)phenyl]benzamide] | (33%/0.1 uM) | – | – |
| COc1cc(NC(=O)c2ccccc2-c2ccccc2)ccc1C(=O)N1CC2CSCCN2Cc2ccccc21 (racemic) [Compound 108, (RS)-2-Phenyl-N-[3-methoxy-4-(1,3,4,12a-tetrahydro-6H-[1,4]thiazino[4,3-a][1,4]-benzodiazepin-11(12H)-yl-carbonyl)phenyl)benzamide] | – | 32 nM | – |
| O=C(Nc1ccc(C(=O)N2C[C@@H]3COCCN3Cc3ccccc32)c(Cl)c1)c1ccccc1-c1ccccc1 [Compound 13, (R)-2-Phenyl-N-[3-chloro-4-(1,3,4,12a-tetrahydro-6H-[1,4]oxazino[4,3-a][1,4]-benzodiazepin-11(12H)-yl-carbonyl)phenyl]benzamide] | – | 32 nM | – |
| Cc1cc(NC(=O)c2ccccc2-c2ccccc2)ccc1C(=O)N1CC2CSCCN2Cc2ccccc21 (racemic) [Compound 107, (RS)-2-Phenyl-N-[3-methyl-4-(1,3,4,12a-tetrahydro-6H-[1,4]thiazino[4,3-a][1,4]-benzodiazepin-11(12H)-yl-carbonyl)phenyl]benzamide] | – | 21 nM | – |
| (RS)-2-(3-Thienyl)-N-[4-(1,3,4,12a-tetrahydro-6H-[1,4]thiazino[4,3-a][1,4]-benzodiazepin-11(12H)-yl-carbonyl)phenyl]benzamide [Compound 49] | (59%/0.1 uM) | – | – |
